Measured values: paper PMC2191316 (The Journal of Experimental Medicine, 1994)
Residues, ends and D or L forms follow the SMILES beside them.

The compounds below were run against DRB5*0101 molecules (Homo sapiens, UniProt P01903+Q30154) (assay: Inhibition of radiolabeled TT).
Assay type: binding
`CC[C@H](C)[C@H](NC(=O)[C@H](CC(N)=O)NC(=O)[C@H](CCCCN)NC(=O)[C@H](Cc1ccccc1)NC(=O)[C@H](Cc1ccccc1)NC(=O)[C@H](C)NC(=O)[C@@H](NC(=O)[C@@H](NC(=O)[C@@H]1CCCN1C(=O)[C@H](CC(N)=O)NC(=O)[C@@H](N)CCC(=O)O)C(C)C)C(C)C)C(=O)N[C@H](C(=O)N[C@H](C(=O)N1CCC[C@H]1C(=O)N[C@@H](CCCNC(=N)N)C(=O)O)[C@@H](C)O)C(C)C` [(85-99)90A] (H-ENPVVAFFKNIVTPR-OH) was tested, and the IC50 was 640 nM.
`CC[C@H](C)[C@H](NC(=O)[C@H](CC(N)=O)NC(=O)[C@H](CCCCN)NC(=O)[C@H](Cc1ccccc1)NC(=O)[C@H](Cc1ccccc1)NC(=O)[C@H](Cc1c[nH]cn1)NC(=O)[C@@H](NC(=O)[C@@H](NC(=O)[C@@H]1CCCN1C(=O)[C@H](CC(N)=O)NC(=O)[C@@H](N)CCC(=O)O)C(C)C)C(C)C)C(=O)N[C@H](C(=O)N[C@H](C(=O)N1CCC[C@H]1C(=O)N[C@@H](C)C(=O)O)[C@@H](C)O)C(C)C` [(85-99)99A] (H-ENPVVHFFKNIVTPA-OH) was tested, and the IC50 was 2300 nM.
For `CC[C@H](C)[C@H](NC(=O)[C@H](CC(N)=O)NC(=O)[C@H](CCCCN)NC(=O)[C@H](Cc1ccccc1)NC(=O)[C@H](Cc1ccccc1)NC(=O)[C@H](Cc1c[nH]cn1)NC(=O)[C@H](C)NC(=O)[C@@H](NC(=O)[C@@H]1CCCN1C(=O)[C@H](CC(N)=O)NC(=O)[C@@H](N)CCC(=O)O)C(C)C)C(=O)N[C@H](C(=O)N[C@H](C(=O)N1CCC[C@H]1C(=O)N[C@@H](CCCNC(=N)N)C(=O)O)[C@@H](C)O)C(C)C` [(85-99)89A] (H-ENPVAHFFKNIVTPR-OH), the IC50 was 690 nM.
`CC[C@H](C)[C@H](NC(=O)[C@H](CC(N)=O)NC(=O)[C@H](CCCCN)NC(=O)[C@H](Cc1ccccc1)NC(=O)[C@H](Cc1ccccc1)NC(=O)[C@H](Cc1c[nH]cn1)NC(=O)[C@@H](NC(=O)[C@@H](NC(=O)[C@@H]1CCCN1C(=O)[C@H](CC(N)=O)NC(=O)[C@H](C)N)C(C)C)C(C)C)C(=O)N[C@H](C(=O)N[C@H](C(=O)N1CCC[C@H]1C(=O)N[C@@H](CCCNC(=N)N)C(=O)O)[C@@H](C)O)C(C)C` [(85-99)85A] (H-ANPVVHFFKNIVTPR-OH) gave an IC50 of 420 nM.
`CC[C@H](C)[C@H](NC(=O)[C@H](CC(N)=O)NC(=O)[C@H](CCCCN)NC(=O)[C@H](Cc1ccccc1)NC(=O)[C@H](Cc1ccccc1)NC(=O)[C@H](Cc1c[nH]cn1)NC(=O)[C@@H](N)C(C)C)C(=O)N[C@H](C(=O)N[C@H](C(=O)N1CCC[C@H]1C(=O)N[C@@H](CCCNC(=N)N)C(=O)O)[C@@H](C)O)C(C)C` [(89-99)] (H-VHFFKNIVTPR-OH) gave an IC50 of 1200 nM.
Compound `CC[C@H](C)[C@H](NC(=O)[C@H](CC(N)=O)NC(=O)[C@H](C)NC(=O)[C@H](Cc1ccccc1)NC(=O)[C@H](Cc1ccccc1)NC(=O)[C@H](Cc1c[nH]cn1)NC(=O)[C@@H](NC(=O)[C@@H](NC(=O)[C@@H]1CCCN1C(=O)[C@H](CC(N)=O)NC(=O)[C@@H](N)CCC(=O)O)C(C)C)C(C)C)C(=O)N[C@H](C(=O)N[C@H](C(=O)N1CCC[C@H]1C(=O)N[C@@H](CCCNC(=N)N)C(=O)O)[C@@H](C)O)C(C)C` [(85-99)93A] (H-ENPVVHFFANIVTPR-OH) has an IC50 of 2900 nM.
`CC[C@H](C)[C@H](NC(=O)[C@H](CC(N)=O)NC(=O)[C@H](CCCCN)NC(=O)[C@H](Cc1ccccc1)NC(=O)[C@H](Cc1ccccc1)NC(=O)[C@H](Cc1c[nH]cn1)NC(=O)[C@@H](NC(=O)[C@@H](NC(=O)[C@@H]1CCCN1C(=O)[C@H](CC(N)=O)NC(=O)[C@@H](N)CCC(=O)O)C(C)C)C(C)C)C(=O)N[C@H](C(=O)N[C@H](C(=O)N[C@@H](C)C(=O)N[C@@H](CCCNC(=N)N)C(=O)O)[C@@H](C)O)C(C)C` [(85-99)98A] (H-ENPVVHFFKNIVTAR-OH) gave an IC50 of 350 nM.
Compound `CC[C@H](C)[C@H](NC(=O)[C@H](CC(N)=O)NC(=O)[C@H](CCCCN)NC(=O)[C@H](Cc1ccccc1)NC(=O)[C@H](Cc1ccccc1)NC(=O)[C@H](Cc1c[nH]cn1)NC(=O)[C@@H](NC(=O)[C@@H](NC(=O)[C@@H]1CCCN1C(=O)[C@H](CC(N)=O)NC(=O)[C@H](CCC(=O)O)NC(=O)[C@@H](N)CC(=O)O)C(C)C)C(C)C)C(=O)N[C@H](C(=O)N[C@H](C(=O)N1CCC[C@H]1C(=O)N[C@@H](CCCNC(=N)N)C(=O)N[C@H](C(=O)N1CCC[C@H]1C(=O)N1CCC[C@H]1C(=O)O)[C@@H](C)O)[C@@H](C)O)C(C)C` [(84-102)] has an IC50 of 55 nM.
For `CC[C@H](C)[C@H](NC(=O)[C@H](CC(N)=O)NC(=O)[C@H](CCCCN)NC(=O)[C@H](C)NC(=O)[C@H](Cc1ccccc1)NC(=O)[C@H](Cc1c[nH]cn1)NC(=O)[C@@H](NC(=O)[C@@H](NC(=O)[C@@H]1CCCN1C(=O)[C@H](CC(N)=O)NC(=O)[C@@H](N)CCC(=O)O)C(C)C)C(C)C)C(=O)N[C@H](C(=O)N[C@H](C(=O)N1CCC[C@H]1C(=O)N[C@@H](CCCNC(=N)N)C(=O)O)[C@@H](C)O)C(C)C` [(85-99)92A] (H-ENPVVHFAKNIVTPR-OH), the IC50 was 8200 nM.
Work on `CC[C@H](C)[C@H](NC(=O)[C@H](CC(N)=O)NC(=O)[C@H](CCCCN)NC(=O)[C@H](Cc1ccccc1)NC(=O)[C@H](C)NC(=O)[C@H](Cc1c[nH]cn1)NC(=O)[C@@H](NC(=O)[C@@H](NC(=O)[C@@H]1CCCN1C(=O)[C@H](CC(N)=O)NC(=O)[C@@H](N)CCC(=O)O)C(C)C)C(C)C)C(=O)N[C@H](C(=O)N[C@H](C(=O)N1CCC[C@H]1C(=O)N[C@@H](CCCNC(=N)N)C(=O)O)[C@@H](C)O)C(C)C` [(85-99)91A] (H-ENPVVHAFKNIVTPR-OH) yielded an IC50 of 1300 nM.
In the case of `CC[C@H](C)[C@H](NC(=O)[C@H](CC(N)=O)NC(=O)[C@H](CCCCN)NC(=O)[C@H](Cc1ccccc1)NC(=O)[C@H](Cc1ccccc1)NC(=O)[C@H](Cc1c[nH]cn1)NC(=O)[C@@H](NC(=O)[C@@H](NC(=O)[C@@H]1CCCN1C(=O)[C@H](C)NC(=O)[C@@H](N)CCC(=O)O)C(C)C)C(C)C)C(=O)N[C@H](C(=O)N[C@H](C(=O)N1CCC[C@H]1C(=O)N[C@@H](CCCNC(=N)N)C(=O)O)[C@@H](C)O)C(C)C` [(85-99)86A] (H-EAPVVHFFKNIVTPR-OH), the IC50 is reported as 940 nM.
In the case of `CC[C@H](C)[C@H](NC(=O)[C@H](CC(N)=O)NC(=O)[C@H](CCCCN)NC(=O)[C@H](Cc1ccccc1)NC(=O)[C@H](Cc1ccccc1)NC(=O)[C@H](Cc1c[nH]cn1)NC(=O)[C@@H](NC(=O)[C@H](C)NC(=O)[C@@H]1CCCN1C(=O)[C@H](CC(N)=O)NC(=O)[C@@H](N)CCC(=O)O)C(C)C)C(=O)N[C@H](C(=O)N[C@H](C(=O)N1CCC[C@H]1C(=O)N[C@@H](CCCNC(=N)N)C(=O)O)[C@@H](C)O)C(C)C` [(85-99)88A] (H-ENPAVHFFKNIVTPR-OH), the IC50 is reported as 945 nM.
For `CC[C@H](C)[C@H](NC(=O)[C@H](CC(N)=O)NC(=O)[C@H](CCCCN)NC(=O)[C@H](Cc1ccccc1)NC(=O)[C@H](Cc1ccccc1)NC(=O)[C@H](Cc1c[nH]cn1)NC(=O)[C@@H](NC(=O)[C@@H](NC(=O)[C@@H]1CCCN1C(=O)[C@H](CC(N)=O)NC(=O)[C@@H](N)CCC(=O)O)C(C)C)C(C)C)C(=O)N[C@@H](C)C(=O)N[C@H](C(=O)N1CCC[C@H]1C(=O)N[C@@H](CCCNC(=N)N)C(=O)O)[C@@H](C)O` [(85-99)96A] (H-ENPVVHFFKNIATPR-OH), the IC50 was 730 nM.
With `CC[C@H](C)[C@H](NC(=O)[C@H](C)NC(=O)[C@H](CCCCN)NC(=O)[C@H](Cc1ccccc1)NC(=O)[C@H](Cc1ccccc1)NC(=O)[C@H](Cc1c[nH]cn1)NC(=O)[C@@H](NC(=O)[C@@H](NC(=O)[C@@H]1CCCN1C(=O)[C@H](CC(N)=O)NC(=O)[C@@H](N)CCC(=O)O)C(C)C)C(C)C)C(=O)N[C@H](C(=O)N[C@H](C(=O)N1CCC[C@H]1C(=O)N[C@@H](CCCNC(=N)N)C(=O)O)[C@@H](C)O)C(C)C` [(85-99)94A] (H-ENPVVHFFKAIVTPR-OH) the IC50 was 140 nM.
Compound `CC[C@H](C)[C@H](NC(=O)[C@H](CC(N)=O)NC(=O)[C@H](CCCCN)NC(=O)[C@H](Cc1ccccc1)NC(=O)[C@H](Cc1ccccc1)NC(=O)[C@H](Cc1c[nH]cn1)NC(=O)[C@@H](NC(=O)[C@@H](NC(=O)[C@H](C)NC(=O)[C@H](CC(N)=O)NC(=O)[C@@H](N)CCC(=O)O)C(C)C)C(C)C)C(=O)N[C@H](C(=O)N[C@H](C(=O)N1CCC[C@H]1C(=O)N[C@@H](CCCNC(=N)N)C(=O)O)[C@@H](C)O)C(C)C` [(85-99)87A] (H-ENAVVHFFKNIVTPR-OH) has an IC50 of 610 nM.
Work on `CC(C)[C@H](NC(=O)[C@H](C)NC(=O)[C@H](CC(N)=O)NC(=O)[C@H](CCCCN)NC(=O)[C@H](Cc1ccccc1)NC(=O)[C@H](Cc1ccccc1)NC(=O)[C@H](Cc1c[nH]cn1)NC(=O)[C@@H](NC(=O)[C@@H](NC(=O)[C@@H]1CCCN1C(=O)[C@H](CC(N)=O)NC(=O)[C@@H](N)CCC(=O)O)C(C)C)C(C)C)C(=O)N[C@H](C(=O)N1CCC[C@H]1C(=O)N[C@@H](CCCNC(=N)N)C(=O)O)[C@@H](C)O` [(85-99)95A] (H-ENPVVHFFKNAVTPR-OH) yielded an IC50 of 1100 nM.
